{"source": "patent US20090130759A1", "about": "“Culture Medium Containing Kinase Inhibitor, and Use Thereof” (The University Court of the University of Edinburgh, priority 2005, published 2009)", "molecules": {"B1": {"name": "BMP4: agonist of the TGF-β superfamily (protein, UniProt P12644 293-408, looked up)", "Bone morphogenetic protein 4": "SPKHHSQRARKKNKNCRRHSLYVDFSDVGWNDWIVAPPGYQAFYCHGDCPFPLADHLNSTNHAIVQTLVNSVNSSIPKACCVPTELSAISMLYLDEYDKVVLKNYQEMVVEGCGCR"}}, "key": {"mouse and human ES cells": {"tested_on": "mouse and human ES cells", "assay": "Attempt to repeat reported effects of GSK3 inhibitor on ES cells (Sato et al)", "type": "cell-based", "details": "attempted repeat of published results", "text": "Sato N, et al, Nat. Med. 2004, January 10(1) pp 55-63 describe the effects of a Glycogen Synthase Kinase 3 (GSK3) inhibitor, 6-bromoindirubin-3′-oxime, on mouse and human ES cells in serum containing medium. These effects, however, were observed only over a very short time frame, too short for firm conclusions to be drawn, and the influence of unknown factors in the undefined media used in that study may be significant.\nInstead, ES cells died or differentiated in GSK-3β inhibitors alone."}, "mouse ES cells": {"tested_on": "mouse ES cells", "assay": "Self-renewal culture of mouse ES cells with GSK3 inhibitor and gp130 signalling (LIF)", "type": "cell-based", "details": "for promotion of self renewal of ES cells: GSK3 inhibitor used in ES cell culture", "method": "(§1) Mouse and human ES cells were grown under various conditions, using N2B27 medium unless otherwise stated and in the presence or absence of the GSK-3β inhibitors CHIR99021, AR-AO144-18, SB216763 and SB415286.\nN2 100× stock solution. For 10 ml: mix 1 ml insulin (final concentration 2.5 mg/ml) with 1 ml apo-transferrin (final concentration 10 mg/ml), 0.67 ml BSA (final concentration 5 mg/ml), 33 μl progesterone (final concentration […]), 100 μl putrescine (final concentration 1.6 mg/ml), 10 μl sodium selenite (final concentration 3 μM) and 7.187 ml DMEM/F12. Store at 4° C. and use within 1 month.\nDMEM/F12-N2 medium: to 100 ml of DMEM/F12, add 1 ml of N2 100× stock solution. The final concentration of each component of N2 in the DMEM/F12 medium is: insulin, 25 μg/ml; apo-transferrin, 100 μg/ml; progesterone, 6 ng/ml; putrescine, 16 μg/ml; sodium selenite, 30 nM; BSA 50 μg/ml. Store at 4° C. and use within 1 month.\nNeurolbasal/B27 medium: to 100 ml of Neurolbasal™ Medium, add 2 ml of B27 and 0.5-1 ml of 200 mM L-glutamine. Store at 4° C. and use within 1 month.\n(§2) N2B27 medium: mix DMEM/F12-N2 medium with Neurolbasal/B27 medium in the ratio of 1:1. Add β-mercaptoethanol to a final concentration of 0.1 mM from the 0.1M stock. Store at 4° C. and use within 1 month."}, "GSK3": {"tested_on": "GSK3", "details": "cited from earlier work"}, "human ES cells [1]": {"tested_on": "human ES cells", "assay": "Human ES cell self-renewal in N2B27 medium on feeder cells", "type": "cell-based", "method": "as §2\na) N2B27 medium with bFGF (10 ng/ml) and grown on feeder cells (HS27 human foreskin fibroblasts); and b) the same as a) but adding BMP4 (5 ng/ml) and LIF (10 ng/ml) as well as bFGF."}, "human ES cells [2]": {"tested_on": "human ES cells", "assay": "Feeder-free, conditioned medium-free culture of human ES cells after forced expression of an Eras gene", "type": "cell-based", "method": "as §1, §2\na) in N2B27 medium with bFGF, grown on laminin, fibronectin, vitronectin or matrigel; b) the same as a) but adding BMP4 (5 ng/ml) as well as bFGF; and c) the same as a) but adding a GSK-3β inhibitor as well as bFGF."}, "[3]": {"details": "N2B27, feeder cells, BMP4 (5 ng/ml) and LIF (10 ng/ml) added as well as bFGF"}}, "data": [{"molecule": "O=C1Nc2cc(Br)ccc2/C1=C1/Nc2ccccc2/C1=N\\O", "note": "[6-bromoindirubin-3′-oxime]", "values": [{"measurement": "effects on mouse and human ES cells versus those described by Sato et al", "setting": "mouse and human ES cells", "value": "effects opposite to those described"}]}, {"molecule": "COc1ccc(CNC(=O)Nc2ncc([N+](=O)[O-])s2)cc1", "note": "[AR-AO144-18]", "values": [{"measurement": "promotion of self renewal of ES cells", "setting": "mouse ES cells", "value": "promote self renewal of ES cells"}]}, {"molecule": "Cc1c[nH]c(-c2cnc(NCCNc3ccc(C#N)cn3)nc2-c2ccc(Cl)cc2Cl)n1", "note": "[CHIR 99021]", "values": [{"measurement": "overall result of use in ES cell culture", "setting": "mouse ES cells", "value": "Good results"}, {"measurement": "promotion of self renewal of ES cells", "setting": "mouse ES cells", "value": "promote self renewal of ES cells"}, {"measurement": "E14.1A ES cells weaned off feeder cells (FIG. 1)", "setting": "mouse ES cells; LIF+CHIR99021 with serum", "value": "weaned off feeder cells and grown"}, {"measurement": "self renewal of mouse ES cells", "setting": "mouse ES cells; combination with LIF in a serum-free, fully defined medium", "value": "improved self renewal of mouse ES cells with very little differentiation"}, {"measurement": "specificity for GSK3", "setting": "GSK3", "value": "specific for GSK3"}]}, {"molecule": "Cn1cc(C2=C(c3ccc(Cl)cc3Cl)C(=O)NC2=O)c2ccccc21", "note": "[SB216763]", "values": [{"measurement": "promotion of self renewal of ES cells", "setting": "mouse ES cells", "value": "promote self renewal of ES cells"}]}, {"molecule": "O=C1NC(=O)C(c2ccccc2[N+](=O)[O-])=C1Nc1ccc(O)c(Cl)c1", "note": "[SB415286]", "values": [{"measurement": "promotion of self renewal of ES cells", "setting": "mouse ES cells", "value": "promote self renewal of ES cells"}]}, {"molecule": "CHIR 98014", "values": [{"measurement": "overall result of use in ES cell culture", "setting": "mouse ES cells", "value": "Good results"}, {"measurement": "promotion of self renewal of ES cells", "setting": "mouse ES cells", "value": "promote self renewal of ES cells"}, {"measurement": "specificity for GSK3", "setting": "GSK3", "value": "specific for GSK3"}]}, {"molecule": "LIF: gp130 receptor binding cytokine", "values": [{"measurement": "sustaining human ES cell self-renewal", "setting": "human ES cells [1]; [3]", "value": "could sustain human ES cell self-renewal"}]}, {"molecule": "bFGF: FGF receptor agonist", "values": [{"measurement": "sustaining human ES cell self-renewal", "setting": "human ES cells [1]; N2B27 medium with bFGF (10 ng/ml), on HS27 human foreskin fibroblast feeder cells", "value": "could sustain human ES cell self-renewal"}, {"measurement": "growth of human ES cells in feeder-free, conditioned medium-free conditions", "setting": "human ES cells [2]; N2B27 with bFGF, on laminin, fibronectin, vitronectin or matrigel", "value": "grew in feeder-free and conditioned medium-free conditions"}]}, {"molecule": "B1", "values": [{"measurement": "sustaining human ES cell self-renewal", "setting": "human ES cells [1]; [3]", "value": "could sustain human ES cell self-renewal"}, {"measurement": "growth of human ES cells in feeder-free, conditioned medium-free conditions", "setting": "human ES cells [2]; N2B27 with BMP4 (5 ng/ml) as well as bFGF", "value": "grew in feeder-free and conditioned medium-free conditions"}]}]}
